In patent publication US8058414B2, “Unnatural polymerase substrates that can sustain enzymatic synthesis of double stranded nucleic acids from a nucleic acid template and methods of use” (Life Technologies Corporation, priority 2008, dated 2011):

How the values were obtained:
Klenow enzyme = target: T1, Klenow enzyme (Escherichia coli, UniProt P00582); test: Polymerase extension of FAM labeled primer over (AAG)14 template; assay type: biochemical; conditions: for extension over (AAG)14 template (electropherogram): FIG. 12, with dCTP, FAM labeled primer
T1 construct: Klenow enzyme at 37° C. for 1 minute
T1 sequence (P00582 324-928): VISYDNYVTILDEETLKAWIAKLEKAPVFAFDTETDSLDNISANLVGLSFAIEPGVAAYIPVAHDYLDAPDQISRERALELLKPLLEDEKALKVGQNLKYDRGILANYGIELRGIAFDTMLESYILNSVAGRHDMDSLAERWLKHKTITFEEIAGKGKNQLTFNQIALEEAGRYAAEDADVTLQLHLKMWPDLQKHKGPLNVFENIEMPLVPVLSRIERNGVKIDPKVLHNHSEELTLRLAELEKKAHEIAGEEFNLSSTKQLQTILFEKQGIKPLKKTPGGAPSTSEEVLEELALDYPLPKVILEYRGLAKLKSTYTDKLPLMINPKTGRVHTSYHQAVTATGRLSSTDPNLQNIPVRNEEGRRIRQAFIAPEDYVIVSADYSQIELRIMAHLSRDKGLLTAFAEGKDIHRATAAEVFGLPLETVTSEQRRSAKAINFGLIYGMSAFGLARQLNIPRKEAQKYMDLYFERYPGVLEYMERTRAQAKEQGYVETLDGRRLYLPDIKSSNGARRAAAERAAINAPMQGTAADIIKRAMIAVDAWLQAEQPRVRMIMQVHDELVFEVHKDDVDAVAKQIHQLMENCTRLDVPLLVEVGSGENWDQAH
Method: In order to determine if a polymerase would continue to extend an unnatural DNA (i.e., a DNA including moieties not present in natural DNA) comprising residues having amino groups, an experiment was designed using aminopropargyl-dUTP (deoxyuridine triphosphate) and dCTP (deoxycytidine triphosphate) which yields extended DNA having residues with terminal amino functional groups on the incorporated dUTP moieties. The dUTP used is represented by the formula: […]
The experiment was conducted using an FAM (i.e., 6-carboxyfluorescein) labeled primer over an (AAG)14 [SEQ ID NO: 1] template.
These substrates were tested against the same template/primer system used in the experiments shown in FIGS. 12A and 12B {i.e., Klenow enzyme at 37° C. for 1 minute over an (AAG)14 [SEQ ID NO: 1] template}. The concentration of the nucleotides for this experiment was 5 μM. The results of this experiment are summarized in the electropherogram of FIG. 13C.
Similar experiments were conducted over the same template for natural dCTP/dTTP, with results shown in the electropherogram of FIG. 13A, and the methylpropynyl analogs of these substrates, with results shown in the electropherogram of FIG. 13B.

[1] = system: Therminator (NEB) DNA polymerases; test: Evaluation of termination and mis-incorporation properties of γ-substituted-dNTP's (capillary electrophoresis of primer extension); assay type: biochemical; conditions: for termination properties (overall) / extension to the first correct base / consumption of the primer / further incorporation over the 2nd correct base (template 2) / activity / incorporation / mis-incorporation: 1 μM substrate; for extension to the first correct base / consumption of the primer: after 10 minutes; for further incorporation over the 2nd correct base (template 2): after 60 minutes
Method: FIGS. 21A-21D are electropherograms showing the termination properties of γ-phosphate substituted dUTP analogs having an O-propargyl-S-substituent at the 5 position over a p(dA) template.
[drawing 12] wherein R1 is a methyl group. The substrate concentration was 1 μM. FIG. 21A is an electropherogram for the primer. FIGS. 21B-D are the electropherograms after 10, 30 and 60 minutes of extension, respectively.
FIGS. 22A-22D are electropherograms showing the mis-incorporation properties of γ-phosphate substituted dUTP analogs having an O-propargyl-S-substituent at the 5 position and a benzyl group as a γ-phosphate substituent. The nucleotide analog used in these experiments had the same general structure as set forth above in the description of FIGS. 21A-21D. For these experiments, all reactions were conducted for 10 minutes at a substrate concentration of 1 μM using Mg^2+. Two templates were used:
General procedure for evaluation of termination properties of γ-substituted-dNTP's comprising silver ion cleavable linker arms attached to the base. All evaluations performed with Therminator (NEB) DNA polymerases were 3′ to 5′ exonuclease negative. Three types of templates were used in testing each substrate, where N denotes the complement of the base that is being evaluated for its termination properties, and the underlined portion of the target is the priming site: 1) a single correct base immediately after the priming site followed by incorrect bases; 2) two correct bases immediately after the priming site followed by incorrect bases; 3) each incorrect base followed by the correct base and then additional incorrect bases. The first two primers were used to show incorporation and termination, while the third set of templates was used to study mis-incorporation. All substrates were evaluated by capillary electrophoresis with analysis for extension of 0, 1, or 2 bases from a fluorescein labeled −21 M13 primer (the binding site of the primer corresponds to the underlined portion of the templates shown below).
Templates were pre-hybridized to the primer at 2 μM final concentration. The final assay concentration of the primer/template hybrid was 40 nM.
Unless otherwise noted, substrates were tested at 1 μM final concentration with 1 μL of the appropriate commercial enzyme at the concentration supplied by the manufacturer (usually 2-5 U/μL in 2× buffer composed of 40 mM Tris, pH 7.6, 10 mM DTT, 10 mM […] and 30 mM isocitrate). Each buffer was used at 1× in the final assay.
Generally, assays were set up as 10 μL final volume and run at 65° C. The termination properties were evaluated at 10 minutes, 30 minutes and 1 hr. At the end of each reaction, […] of the reaction mix was pipetted into 25 μL of 0.5 M EDTA, to quench the reaction, in a streptavidin coated microtiter plate well (Applied Biosystems Part No. 4357279) to capture the biotin labeled template for purification of the primer. Plates were shaken at room temperature for 10 minutes. Excess fluid was discarded and the microtiter wells were washed 3× with 4×SSC containing 0.1% Tween 20. Plates were centrifuged briefly upside down to remove excess buffer. To remove the primer from the template, 20 μL of HiDi Formamide (Applied Biosystems Part No. 4311320) was added with size ladder (LIZ® dye-labeled SNPlex™ internal size standard) to each well. The plate was incubated at 50° C. with shaking for 10 minutes. […] of the HiDi Formamide solution was transferred to a 96 well plate (Applied Biosystems Part No. N8010560) and covered with a 96 well plate septa (Applied Biosystems Part No. 4315933). Samples were separated electrophoretically on an AB 3100XL with a 36 cm capillary with POP6™ polymer separating media. The peaks were analyzed with either GeneScan® Software or Peak Scanner™ software, both from Applied Biosystems.

[2] = 5 μM substrate, after 30 minutes

Q: Which “synthesis of the extension product over (AAG)14 template” value (Klenow enzyme; FIG. 13, Klenow enzyme at 37° C. for 1 minute, nucleotides 5 μM) does the source give for `CC#CCNC(=O)CO` here?
A: Its value is “excellent synthesis of the extension product”.

Q: How did the “extension over (AAG)14 template (electropherogram)” value (Klenow enzyme; 42 base target template) turn out when `NCC#Cc1cn([C@H]2C[C@H](O)[C@@H](COP(=O)(O)OP(=O)(O)OP(=O)(O)O)O2)c(=O)[nH]c1=O` [aminopropargyl-dUTP] was run?
A: The value was “poor extension”.

Q: What about the “extent of extension over the template” value (Klenow enzyme; FIG. 12B, 42 base target template) of the same compound?
A: Its value is at most 14 bases.

Q: For `Nc1ncnc2c1ncn2[C@H]1C[C@H](O)[C@@H](COP(=O)(O)OP(=O)(O)OP(=O)(O)OCc2ccccc2)O1` [compound 27, γ-benzyl-dATP], which “termination properties (overall)” value [1] is on record?
A: Its value is “excellent termination properties”.

Q: What about the “extension to the first correct base / consumption of the primer” value [1] of the same compound?
A: Its value is “almost complete consumption of the primer”.

Q: And the “further incorporation over the 2nd correct base (template 2)” value [1]?
A: The value was “no further incorporation is observed”.

Q: Which results are given for `C[n+]1ccn(CCOP(=O)(O)OP(=O)(O)OP(=O)(O)OCC2OC(n3ccc(N)nc3=O)CC2O)c1` (stereo not drawn) [compound 28, γ-(2-(N-(3-methylimidazolium))-ethyl)-dCTP]?
A: activity [1]: quite low; incorporation ([1]; after 1 hr.): significant incorporation; mis-incorporation ([1]; after 1 hr.): no mis-incorporation is observed; consumption of the primer [1, 2]: completely consumed; extension past the first base on the GG template [1, 2]: only a trace of extension

Q: Which results are given for `C[n+]1ccn(CCOP(=O)(O)OP(=O)(O)OP(=O)(O)OC[C@H]2O[C@@H](n3cnc4c(=O)[nH]c(N)nc43)C[C@@H]2O)c1` [compound 29, γ-(2-(N-(3-methylimidazolium))-ethyl)-dGTP]?
A: activity [1]: quite low; incorporation ([1]; after 1 hr.): significant incorporation; mis-incorporation ([1]; after 1 hr.): no mis-incorporation is observed; consumption of the primer ([1]; 4 μM substrate, after 1 hr.): completely consumed; extension past the first base on the CC template ([1]; 4 μM substrate, after 1 hr.): only a trace of extension

Q: Which “extension over (AAG)14 template (electropherogram)” value (Klenow enzyme; 42 base target template) does the source give for methylpropynyl dUTP here?
A: The value was “extension to a single product”.

Q: For γ-methyl-dUTP [compound 26], which “termination properties (overall)” value [1] is on record?
A: The value was “excellent termination properties”.

Q: And the “extension to the first correct base / consumption of the primer” value [1]?
A: Its value is “almost complete consumption of the primer”.

Q: And the “extension to the first correct base / consumption of the primer” value ([1]; listed as drawing 12)?
A: The value was “almost complete”.

Q: What about the “further incorporation over the 2nd correct base (template 2)” value [1] of the same compound?
A: Its value is “No further incorporation is observed”.

Q: And the “further incorporation over the 2nd correct base (template 2)” value ([1]; listed as drawing 12)?
A: The value was “no observable incorporation”.

Q: And the “incorporation into the AA template” value ([1]; FIG. 22B, 10 minutes, 1 μM, Mg2+)?
A: The value was “is incorporated into the AA template”.

Q: And the “mis-incorporation over the dG or dT in the GA and TA templates” value ([1]; FIG. 22C-D, 10 minutes, 1 μM, Mg2+)?
A: Its value is “is not mis-incorporated”.
